# Measurements published in patent US10409869B2, “(R)- and (S)-1-(3-(3-N,N-dimethylaminocarbonyl)phenoxyl-4-nitrophenyl)-1-ethyl-N,N'-bis (ethylene)phosphoramidate, compositions and methods for their use and preparation” (OBI Pharma, Inc., priority 2015, dated 2019).
# Key:
# [1] = Plasma concentration and TK after 30-min IV infusion at 2 mg/kg; assay type: in vivo, Cynomolgus monkeys; conditions: Cynomolgus, cynomolgus monkey, plasma, iv, 2 mg/kg
# Method: (§1) TH 3423 and TH 3424 were tested in […] naïve monkeys (1 male and one female for each compound at 2 mg/kg) with 30-min intravenous infusion, TK sampling: on Day 1 and Day 15: 0.25, 0.5, 0.75, 1 and 2 hr post infusion initiation. Serum chemistry and hematology: pre-dose (Day 1), day 5, day 8 (pre-dose), day 15 (pre-dose), day 22 and day 28. Clinical observation: Daily during the study, total 35 days. Food consumption: Daily during the study, total 35 days. Bodyweight measurement: Twice weekly for five weeks.
# [2] = Serum chemistry in monkeys, 2 mg/kg 30-min IV infusion; assay type: in vivo, Cynomolgus monkeys
# Method: as §1
structure (smiles),measurement,setting,value
"C[C@H](OP(=O)(N1CC1)N1CC1)c1ccc([N+](=O)[O-])c(Oc2cccc(C(=O)N(C)C)c2)c1 (single isomer, unassigned) [TH3424]",AUC(0-inf),"[1]; both sexes, Mean",1460 ng·h/mL
same,AUC(0-t),"[1]; both sexes, Mean",1460 ng·h/mL
same,AUC(0-inf),[1]; female,1200 ng·h/mL
same,AUC(0-t),[1]; female,1200 ng·h/mL
same,AUC(0-inf),[1]; male,1730 ng·h/mL
same,AUC(0-t),[1]; male,1720 ng·h/mL
same,A/G,"[2]; female, Day 1 (pre-dose)",1.9
same,ALB,"[2]; female, Day 1 (pre-dose)",46.1 g/L
same,ALP,"[2]; female, Day 1 (pre-dose)",134.2 U/L
same,ALT,"[2]; female, Day 1 (pre-dose)",61.6 U/L
same,AST,"[2]; female, Day 1 (pre-dose)",23.7 U/L
same,BUN,"[2]; female, Day 1 (pre-dose)",3.43 mM
same,CK,"[2]; female, Day 1 (pre-dose)",202 U/L
same,CREA,"[2]; female, Day 1 (pre-dose)",61 µM
same,Ca,"[2]; female, Day 1 (pre-dose)",2.51 mmol/L
same,GLB,"[2]; female, Day 1 (pre-dose)",24.1 g/L
same,Glu,"[2]; female, Day 1 (pre-dose)",3.34 mM
same,K,"[2]; female, Day 1 (pre-dose)",5.77 mmol/L
same,Na,"[2]; female, Day 1 (pre-dose)",143 mmol/L
same,TBIL,"[2]; female, Day 1 (pre-dose)",1.5 µM
same,TC,"[2]; female, Day 1 (pre-dose)",3.04 mM
same,TG,"[2]; female, Day 1 (pre-dose)",0.17 mmol/L
same,TP,"[2]; female, Day 1 (pre-dose)",70.2 g/L
same,γ-GT,"[2]; female, Day 1 (pre-dose)",47.3 U/L
same,A/G,"[2]; female, Day 8 (pre-dose)",1.4
same,ALB,"[2]; female, Day 8 (pre-dose)",41.8 g/L
same,ALP,"[2]; female, Day 8 (pre-dose)",200.2 U/L
same,ALT,"[2]; female, Day 8 (pre-dose)",37.7 U/L
same,AST,"[2]; female, Day 8 (pre-dose)",43.1 U/L
same,BUN,"[2]; female, Day 8 (pre-dose)",5.63 mM
same,CK,"[2]; female, Day 8 (pre-dose)",190 U/L
same,CREA,"[2]; female, Day 8 (pre-dose)",88 µM
same,Ca,"[2]; female, Day 8 (pre-dose)",2.37 mmol/L
same,GLB,"[2]; female, Day 8 (pre-dose)",30.6 g/L
same,Glu,"[2]; female, Day 8 (pre-dose)",5.91 mM
same,K,"[2]; female, Day 8 (pre-dose)",4.33 mmol/L
same,Na,"[2]; female, Day 8 (pre-dose)",143 mmol/L
same,TBIL,"[2]; female, Day 8 (pre-dose)",0.8 µM
same,TC,"[2]; female, Day 8 (pre-dose)",2.91 mM
same,TG,"[2]; female, Day 8 (pre-dose)",0.63 mmol/L
same,TP,"[2]; female, Day 8 (pre-dose)",72.4 g/L
same,γ-GT,"[2]; female, Day 8 (pre-dose)",36.2 U/L
same,A/G,"[2]; female, Day 15 (pre-dose)",1.6
same,ALB,"[2]; female, Day 15 (pre-dose)",38.5 g/L
same,ALP,"[2]; female, Day 15 (pre-dose)",151.5 U/L
same,ALT,"[2]; female, Day 15 (pre-dose)",31.9 U/L
same,AST,"[2]; female, Day 15 (pre-dose)",23.8 U/L
same,BUN,"[2]; female, Day 15 (pre-dose)",3.87 mM
same,CK,"[2]; female, Day 15 (pre-dose)",78 U/L
same,CREA,"[2]; female, Day 15 (pre-dose)",46 µM
same,Ca,"[2]; female, Day 15 (pre-dose)",2.2 mmol/L
same,GLB,"[2]; female, Day 15 (pre-dose)",23.8 g/L
same,Glu,"[2]; female, Day 15 (pre-dose)",2.8 mM
same,K,"[2]; female, Day 15 (pre-dose)",5.58 mmol/L
same,Na,"[2]; female, Day 15 (pre-dose)",132.59 mmol/L
same,TBIL,"[2]; female, Day 15 (pre-dose)",4.0 µM
same,TC,"[2]; female, Day 15 (pre-dose)",2.23 mM
same,TG,"[2]; female, Day 15 (pre-dose)",0.94 mmol/L
same,TP,"[2]; female, Day 15 (pre-dose)",62.3 g/L
same,γ-GT,"[2]; female, Day 15 (pre-dose)",34.2 U/L
same,A/G,"[2]; male, Day 1 (pre-dose)",2.5
same,ALB,"[2]; male, Day 1 (pre-dose)",50.5 g/L
same,ALP,"[2]; male, Day 1 (pre-dose)",287.5 U/L
same,ALT,"[2]; male, Day 1 (pre-dose)",43.0 U/L
same,AST,"[2]; male, Day 1 (pre-dose)",40.2 U/L
same,BUN,"[2]; male, Day 1 (pre-dose)",4.89 mM
same,CK,"[2]; male, Day 1 (pre-dose)",221 U/L
same,CREA,"[2]; male, Day 1 (pre-dose)",91 µM
same,Ca,"[2]; male, Day 1 (pre-dose)",2.38 mmol/L
same,GLB,"[2]; male, Day 1 (pre-dose)",19.9 g/L
same,Glu,"[2]; male, Day 1 (pre-dose)",4.5 mM
same,K,"[2]; male, Day 1 (pre-dose)",4.31 mmol/L
same,Na,"[2]; male, Day 1 (pre-dose)",147 mmol/L
same,TBIL,"[2]; male, Day 1 (pre-dose)",2.1 µM
same,TC,"[2]; male, Day 1 (pre-dose)",3.22 mM
same,TG,"[2]; male, Day 1 (pre-dose)",0.38 mmol/L
same,TP,"[2]; male, Day 1 (pre-dose)",70.4 g/L
same,γ-GT,"[2]; male, Day 1 (pre-dose)",62.2 U/L
same,A/G,"[2]; male, Day 8 (pre-dose)",2.0
same,ALB,"[2]; male, Day 8 (pre-dose)",43.3 g/L
same,ALP,"[2]; male, Day 8 (pre-dose)",225.2 U/L
same,ALT,"[2]; male, Day 8 (pre-dose)",31.2 U/L
same,AST,"[2]; male, Day 8 (pre-dose)",31.2 U/L
same,BUN,"[2]; male, Day 8 (pre-dose)",4.8 mM
same,CK,"[2]; male, Day 8 (pre-dose)",83 U/L
same,CREA,"[2]; male, Day 8 (pre-dose)",96 µM
same,Ca,"[2]; male, Day 8 (pre-dose)",2.33 mmol/L
same,GLB,"[2]; male, Day 8 (pre-dose)",21.8 g/L
same,Glu,"[2]; male, Day 8 (pre-dose)",4.15 mM
same,K,"[2]; male, Day 8 (pre-dose)",4.51 mmol/L
same,Na,"[2]; male, Day 8 (pre-dose)",147 mmol/L
same,TBIL,"[2]; male, Day 8 (pre-dose)",3.6 µM
same,TC,"[2]; male, Day 8 (pre-dose)",3.06 mM
same,TG,"[2]; male, Day 8 (pre-dose)",0.66 mmol/L
same,TP,"[2]; male, Day 8 (pre-dose)",65.1 g/L
same,γ-GT,"[2]; male, Day 8 (pre-dose)",44.9 U/L
same,A/G,"[2]; male, Day 15 (pre-dose)",2.2
same,ALB,"[2]; male, Day 15 (pre-dose)",36.8 g/L
same,ALP,"[2]; male, Day 15 (pre-dose)",174.8 U/L
same,ALT,"[2]; male, Day 15 (pre-dose)",45.0 U/L
same,AST,"[2]; male, Day 15 (pre-dose)",73.5 U/L
same,BUN,"[2]; male, Day 15 (pre-dose)",9.66 mM
same,CK,"[2]; male, Day 15 (pre-dose)",172 U/L
same,CREA,"[2]; male, Day 15 (pre-dose)",58 µM
same,Ca,"[2]; male, Day 15 (pre-dose)",2.14 mmol/L
same,GLB,"[2]; male, Day 15 (pre-dose)",16.4 g/L
same,Glu,"[2]; male, Day 15 (pre-dose)",1.47 mM
same,K,"[2]; male, Day 15 (pre-dose)",6.05 mmol/L
same,Na,"[2]; male, Day 15 (pre-dose)",136.14 mmol/L
same,TBIL,"[2]; male, Day 15 (pre-dose)",2.1 µM
same,TC,"[2]; male, Day 15 (pre-dose)",1.44 mM
same,TG,"[2]; male, Day 15 (pre-dose)",0.41 mmol/L
same,TP,"[2]; male, Day 15 (pre-dose)",53.2 g/L
same,γ-GT,"[2]; male, Day 15 (pre-dose)",36.7 U/L
